The values below come from patent US20220251141A1, “IMMUNOMODULATORS” (Bristol-Myers Squibb Company, priority 2019, published 2022).

The structures appear in SMILES notation. Bridge positions count the residues as written; N and C are the ends. Square brackets hold non-standard residues; d marks the D form. Peptide text beside a SMILES is read from it. * marks the point of attachment. Trp(1-CH2COOH) = N[C@@H](Cc1cn(CC(=O)O)c2ccccc12)C(=O)O; Trp(1-Me) = Cn1cc(C[C@H](N)C(=O)O)c2ccccc21; Phe(4-F) = N[C@@H](Cc1ccc(F)cc1)C(=O)O; Hyp = O=C(O)[C@@H]1C[C@@H](O)CN1; NMeNle = CCCC[C@H](NC)C(=O)O; Pen = CC(C)(S)[C@H](N)C(=O)O; Pip = O=C(O)[C@@H]1CCCCN1; Dab = NCC[C@H](N)C(=O)O; Dap = NC[C@H](N)C(=O)O; Boc = CC(C)(C)OC(=O)*; Piv = CC(C)(C)C(=O)*

The assay concerns the target T1, PD-1/PD-L1 (Homo sapiens, UniProt Q9NZQ7).
T1 construct: TVMV protease site linker (C); made in house; host or cells: HEK293T cells
Put plainly: PD-1/PD-L1 Homogenous Time-Resolved Fluorescence (HTRF) binding assay. Particulars: PD-L1-His 10 nM final, PD-1-Ig 20 nM final; inhibitors pre-incubated with PD-L1-His for 15 m. In outline: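 Compounds pre-incubated 15 min with human PD-L1(18-239)-His (10 nM final), then PD-1(25-167)-Ig (20 nM final) added for 15 min, in dPBS with 0.1% BSA and 0.05% Tween-20. Eu-cryptate anti-Ig (1 nM) and APC anti-His (20 nM) added, 30 min equilibration, 665/620 nm ratio read; IC50 reported.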
Background: In TR-FRET formats the signal depends on donor and acceptor labels being close together.
Usually IC50 stands for the concentration that gives 50% inhibition. Take `CCCC[C@H]1C(=O)N(C)[C@@H](CCCC)C(=O)N[C@@H](CC(C)C)C(=O)N[C@H](C(N)=O)CSCC(=O)N[C@@H](Cc2ccc(F)cc2)C(=O)N2CCCC[C@H]2C(=O)N[C@@H](CC(=O)O)C(=O)N2CCC[C@H]2C(=O)N[C@@H](CNC(=O)OC(C)(C)C)C(=O)N[C@@H](CC(C)C)C(=O)N2C[C@H](O)C[C@H]2C(=O)N[C@@H](Cc2c[nH]c3ccccc23)C(=O)N[C@@H](CCNC(=O)OC(C)(C)C)C(=O)N[C@@H](Cc2cn(CC(=O)O)c3ccccc23)C(=O)N1C` [Example 20020] ({CH2CO}-[Phe(4-F)][Pip]DP[Dap](Boc)L[Hyp]W[Dab](Boc)[Trp(1-CH2COOH)][NMeNle][NMeNle]LC-NH2; thioether N-14): the half-inhibitory concentration (IC50) was found to be 6.9 nM.
With `CCCC[C@H]1C(=O)N(C)[C@@H](CCCC)C(=O)N[C@@H](CCC(=O)O)C(=O)N[C@H](C(N)=O)CSCC(=O)N[C@@H](Cc2ccc(F)cc2)C(=O)N2CCCC[C@H]2C(=O)N[C@@H](CC(N)=O)C(=O)N2CCC[C@H]2C(=O)N[C@@H](CNC(=O)C(C)(C)C)C(=O)N[C@@H](CC(C)C)C(=O)N2C[C@H](O)C[C@H]2C(=O)N[C@@H](Cc2c[nH]c3ccccc23)C(=O)N[C@@H](CCNC(=O)C(C)(C)C)C(=O)N[C@@H](Cc2cn(CC(=O)O)c3ccccc23)C(=O)N1C` [Example 20030] ({CH2CO}-[Phe(4-F)][Pip]NP[Dap](Piv)L[Hyp]W[Dab](Piv)[Trp(1-CH2COOH)][NMeNle][NMeNle]EC-NH2; thioether N-14) the figure was 7.8 nM.
`CCCC[C@H]1C(=O)N(C)[C@@H](CCCC)C(=O)N[C@@H](CC(C)C)C(=O)N[C@H](C(N)=O)CSCC(=O)N[C@@H](Cc2ccc(F)cc2)C(=O)N2CCCC[C@H]2C(=O)N[C@@H](CC(=O)O)C(=O)N2CCC[C@H]2C(=O)N[C@@H](CNC(=O)C(C)(C)C)C(=O)N[C@@H](CC(C)C)C(=O)N2CCC[C@H]2C(=O)N[C@@H](Cc2c[nH]c3ccccc23)C(=O)N[C@@H](CCNC(=O)C(C)(C)C)C(=O)N[C@@H](Cc2cn(CC(=O)O)c3ccccc23)C(=O)N1C` [Example 20040] ({CH2CO}-[Phe(4-F)][Pip]DP[Dap](Piv)LPW[Dab](Piv)[Trp(1-CH2COOH)][NMeNle][NMeNle]LC-NH2; thioether N-14) came in with an IC50 of 8.3 nM.
As for `CCCC[C@H]1C(=O)N(C)[C@@H](CCCC)C(=O)N[C@@H](CC(C)C)C(=O)N[C@H](C(N)=O)CSCC(=O)N[C@@H](Cc2ccc(F)cc2)C(=O)N2CCCC[C@H]2C(=O)N[C@@H](CC(=O)O)C(=O)N2CCC[C@H]2C(=O)N[C@@H](CNC(=O)C(C)(C)C)C(=O)N[C@@H](CC(C)C)C(=O)N2C[C@H](O)C[C@H]2C(=O)N[C@@H](Cc2c[nH]c3ccccc23)C(=O)N[C@@H](CCN)C(=O)N[C@@H](Cc2cn(CC(=O)O)c3ccccc23)C(=O)N1C` [Example 20050] ({CH2CO}-[Phe(4-F)][Pip]DP[Dap](Piv)L[Hyp]W[Dab][Trp(1-CH2COOH)][NMeNle][NMeNle]LC-NH2; thioether N-14), the IC50 was 10.4 nM.
With `CCCC[C@H]1C(=O)N(C)[C@@H](CCCC)C(=O)N[C@@H](CC(C)C)C(=O)N[C@H](C(N)=O)C(C)(C)SCC(=O)N[C@@H](Cc2ccc(F)cc2)C(=O)N2CCCC[C@H]2C(=O)N[C@@H](CC(=O)O)C(=O)N2CCC[C@H]2C(=O)N[C@@H](CNC(=O)C(C)(C)C)C(=O)N[C@@H](CC(C)C)C(=O)N2C[C@H](O)C[C@H]2C(=O)N[C@@H](Cc2c[nH]c3ccccc23)C(=O)N[C@@H](CCN)C(=O)N[C@@H](Cc2cn(CC(=O)O)c3ccccc23)C(=O)N1C` [Example 20060] ({CH2CO}-[Phe(4-F)][Pip]DP[Dap](Piv)L[Hyp]W[Dab][Trp(1-CH2COOH)][NMeNle][NMeNle]L[Pen]-NH2; thioether N-14), the IC50 came out at 10.4 nM.
As to `CCCC[C@H]1C(=O)N(C)[C@@H](CCCC)C(=O)N[C@@H](CCC(=O)O)C(=O)N[C@H](C(N)=O)CSCC(=O)N[C@@H](Cc2ccc(F)cc2)C(=O)N2CCCC[C@H]2C(=O)N[C@@H](CC(=O)O)C(=O)N2CCC[C@H]2C(=O)N[C@@H](CNC(=O)C(C)(C)C)C(=O)N[C@@H](CC(C)C)C(=O)N2C[C@H](O)C[C@H]2C(=O)N[C@@H](Cc2c[nH]c3ccccc23)C(=O)N[C@@H](CCNC(=O)C(C)(C)C)C(=O)N[C@@H](Cc2cn(CC(=O)O)c3ccccc23)C(=O)N1C` [Example 20070] ({CH2CO}-[Phe(4-F)][Pip]DP[Dap](Piv)L[Hyp]W[Dab](Piv)[Trp(1-CH2COOH)][NMeNle][NMeNle]EC-NH2; thioether N-14), the IC50 worked out at 10.5 nM.
For `CCCC[C@H]1C(=O)N(C)[C@@H](CCCC)C(=O)N[C@@H](C(C)C)C(=O)N[C@H](C(N)=O)CSCC(=O)N[C@@H](Cc2ccc(F)cc2)C(=O)N2CCCC[C@H]2C(=O)N[C@@H](CC(=O)O)C(=O)N2CCC[C@H]2C(=O)N[C@@H](CNC(=O)C(C)(C)C)C(=O)N[C@@H](CCCCN)C(=O)N2C[C@H](O)C[C@H]2C(=O)N[C@@H](Cc2c[nH]c3ccccc23)C(=O)N[C@@H](CCNC(=O)C(C)(C)C)C(=O)N[C@@H](Cc2cn(CC(=O)O)c3ccccc23)C(=O)N1C` [Example 20080] ({CH2CO}-[Phe(4-F)][Pip]DP[Dap](Piv)K[Hyp]W[Dab](Piv)[Trp(1-CH2COOH)][NMeNle][NMeNle]VC-NH2; thioether N-14), the 50% inhibitory concentration (IC50) amounted to 10.7 nM.
`CCCC[C@H]1C(=O)N(C)[C@@H](CCCC)C(=O)N[C@@H](CC(C)C)C(=O)N[C@H](C(N)=O)CSCC(=O)N[C@@H](Cc2ccc(F)cc2)C(=O)N2CCCC[C@H]2C(=O)N[C@@H](CC(=O)O)C(=O)N2CCC[C@H]2C(=O)N[C@@H](CNC(=O)C(C)(C)C)C(=O)N[C@@H](CCCCN)C(=O)N2C[C@H](O)C[C@H]2C(=O)N[C@@H](Cc2c[nH]c3ccccc23)C(=O)N[C@@H](CCNC(=O)C(C)(C)C)C(=O)N[C@@H](Cc2cn(CC(=O)O)c3ccccc23)C(=O)N1C` [Example 20090] ({CH2CO}-[Phe(4-F)][Pip]DP[Dap](Piv)K[Hyp]W[Dab](Piv)[Trp(1-CH2COOH)][NMeNle][NMeNle]LC-NH2; thioether N-14) registered a half-inhibitory concentration (IC50) of 11.1 nM.
`CCCC[C@H]1C(=O)N(C)[C@@H](CCCC)C(=O)N[C@@H](CCC(=O)O)C(=O)N[C@H](C(N)=O)CSCC(=O)N[C@@H](Cc2ccc(F)cc2)C(=O)N2CCCC[C@H]2C(=O)N[C@@H](CC(N)=O)C(=O)N2CCC[C@H]2C(=O)N[C@@H](CNC(=O)C(C)(C)C)C(=O)N[C@@H](CC(C)C)C(=O)N2CCC[C@H]2C(=O)N[C@@H](Cc2c[nH]c3ccccc23)C(=O)N[C@@H](CCN)C(=O)N[C@@H](Cc2cn(CC(=O)O)c3ccccc23)C(=O)N1C` [Example 20110] ({CH2CO}-[Phe(4-F)][Pip]NP[Dap](Piv)LPW[Dab][Trp(1-CH2COOH)][NMeNle][NMeNle]EC-NH2; thioether N-14): the IC50 was determined as 11.7 nM.
The molecule `CCCC[C@H]1C(=O)N(C)[C@@H](CCCC)C(=O)N[C@@H](CC(C)C)C(=O)N[C@H](C(N)=O)C(C)(C)SCC(=O)N[C@@H](Cc2ccc(F)cc2)C(=O)N2CCCC[C@H]2C(=O)N[C@@H](CC(N)=O)C(=O)N2CCC[C@H]2C(=O)N[C@@H](CNC(=O)C(C)(C)C)C(=O)N[C@@H](CC(C)C)C(=O)N2C[C@H](O)C[C@H]2C(=O)N[C@@H](Cc2c[nH]c3ccccc23)C(=O)N[C@@H](CCN)C(=O)N[C@@H](Cc2cn(C)c3ccccc23)C(=O)N1C` [Example 20120] ({CH2CO}-[Phe(4-F)][Pip]NP[Dap](Piv)L[Hyp]W[Dab][Trp(1-Me)][NMeNle][NMeNle]L[Pen]-NH2; thioether N-14) registered an IC50 of 11.8 nM.
